# Test results from article PMC1831776, “Structure and characterization of a novel chicken biotin-binding protein A (BBP-A)” (BMC Structural Biology, 2007).
# pKd: −log10 of the molar value. Marks after values point to notes of the source that are not given here.
# Legend:
# [1] = molecular target: chicken biotin-binding protein A expressed in bacteria (bBBP-A) (chicken); experiment: SEC; gel filtration, Superdex 200 10/300 GL, 50 mM NaPO4, 650 mM NaCl, pH 7.0; samples without BTN and after 15 min with 0.22 mM BTN; apparent masses from standard proteins
# [2] = molecular target: chicken biotin-binding protein A expressed in bacteria (bBBP-A) (chicken); experiment: SDS-PAGE-based thermostability assay; samples saturated with BTN; acetylated in vitro, thermal treatment 20 min in sample buffer with SDS and 2-mercaptoethanol, Coomassie staining
# [3] = molecular target: chicken biotin-binding protein A expressed in bacteria (bBBP-A) (chicken); experiment: crystal structure; bBBP-A co-crystallised with BTN; two crystals, BBP-A - BTN (2.1 A, I4(1)22) and BBP-A - BSO (1.75 A, P2(1)2(1)2)
# [4] = Differential scanning calorimetry of the proteins; assay type: physicochemical, chicken; settings: with BTN
# Description: (§1) Differential scanning analysis was performed in 50 mM NaPO4 buffer (pH 7.0) containing 100 mM NaCl as previously described. The concentration of the analyzed proteins was between 0.2 and 0.6 mg/ml. In samples containing a ligand, the molar ligand concentration was three times as high as the protein subunit concentration. The samples were scanned from 25 to 130°C at a rate of 0.92°C/min.
# [5] = without BTN; ref [33]; cited from earlier work
# [6] = Dissociation of fluorescent biotin conjugate ArcDia BF560-biotin from the proteins; assay type: binding; settings: 25°C
# Description: (§2) The dissociation rate of [^3H]biotin from BBP-A was measured using a competitive dissociation assay (Figure 9; Table 2).
# The dissociation rate of the fluorescent biotin conjugate ArcDia™ BF560-biotin (ArcDia Ltd., Turku, Finland) was measured as reported previously. The measurements were made at 25°C in 50 mM NaPO4 buffer (pH 7.0) containing 650 mM NaCl using a PerkinElmer LS55 luminometer.
# [7] = parameters: method as in PMID 15324300; settings: ref [30], cited from earlier work; for Tr +BTN: with BTN; for Tr -BTN: without BTN
# [8] = molecular target: chicken biotin-binding protein A expressed in insect cells (iBBP-A) (chicken); experiment: SEC; gel filtration, Superdex 200 10/300 GL, 50 mM NaPO4, 650 mM NaCl, pH 7.0; samples without BTN and after 15 min with 0.22 mM BTN; apparent masses from standard proteins
# [9] = molecular target: chicken biotin-binding protein A expressed in insect cells (iBBP-A) (chicken); experiment: SDS-PAGE-based thermostability assay; samples saturated with BTN; acetylated in vitro, thermal treatment 20 min in sample buffer with SDS and 2-mercaptoethanol, Coomassie staining
# bBBP-A [10] = molecular target: T1, bBBP-A (Gallus gallus, UniProt E1BTQ4); experiment: Fluorescence spectroscopy protein-ligand dissociation analysis; assay type: binding, chicken
# T1 sequence (E1BTQ4 22-146): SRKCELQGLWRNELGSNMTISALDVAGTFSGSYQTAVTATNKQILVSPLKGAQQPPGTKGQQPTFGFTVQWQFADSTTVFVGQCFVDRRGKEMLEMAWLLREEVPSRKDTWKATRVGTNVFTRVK
# Description: Fluorescence spectroscopy was also used to measure the rate of protein-ligand dissociation. These experiments were made at 40°C in order to measure the dissociation events within an experimentally applicable timescale. […] The measured spectral properties of each protein-ligand complex (i.e. the emission intensity of the protein-ligand complex) were used to create a single-phase dissociation model, which was fitted to the data.
# wtAVD = molecular target: T2, wtAVD (Gallus gallus, UniProt P02701); experiment: Intrinsic fluorescence emission spectra, AVD; assay type: binding, chicken; settings: 100 nM protein, 200 nM ligand, 25°C, excitation 280 nm
# T2 construct: AVD isolated from chicken egg-white (wtAVD; Belovo S. A., Bastogne, Belgium); purchased Belovo S. A., Bastogne, Belgium; host or cells: chicken egg-white
# T2 sequence (P02701 25-152): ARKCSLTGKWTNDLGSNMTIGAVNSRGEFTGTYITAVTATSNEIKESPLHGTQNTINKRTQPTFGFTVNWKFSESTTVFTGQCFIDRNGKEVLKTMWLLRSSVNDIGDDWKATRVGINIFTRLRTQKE
# Description: (§3) The ligand-induced changes to the emission spectra of bBBP-A and wtAVD were studied, too (Figure 11). […] Compared to the ligand-free proteins, for each of the ligand-protein combinations the maximum in the emission spectra moved towards the shorter blue wavelengths.
# (§4) In order to study the intrinsic fluorescence of the proteins, the emission spectra of bBBP-A and wtAVD in 50 mM NaPO4 buffer (pH 7.0) containing 650 mM NaCl were measured using a PerkinElmer LS55 spectrofluorometer and excitation at 280 nm (slit 2.5 nm). During the analysis, protein solutions (100 nM) were continuously mixed using an integrated magnetic stirrer and maintained at 25°C using a circulating water bath.
# chicken AVD [11] = molecular target: T3, chicken AVD (Gallus gallus, UniProt P02701); experiment: DSC of AVD in the presence of ligand; assay type: binding
# T3 construct: AVD isolated from chicken egg-white (wtAVD; Belovo S. A., Bastogne, Belgium); purchased Belovo S. A., Bastogne, Belgium; host or cells: chicken egg-white
# T3 sequence (P02701 25-152): as above
# Description: as §1
# bBBP-A [12] = molecular target: T1, bBBP-A; experiment: DSC of BBP-A in the presence of ligand; assay type: binding, chicken
# Description: as §1
# bBBP-A [13] = molecular target: T1, bBBP-A; experiment: Intrinsic fluorescence emission spectra, BBP-A; assay type: binding, chicken; settings: 100 nM protein, 200 nM ligand, 25°C, excitation 280 nm
# Description: as §3, §4
# bBBP-A [14] = molecular target: T1, bBBP-A; experiment: Isothermal titration calorimetry, BBP-A; assay type: binding, chicken; settings: for Enthalpy (ITC), BBP-A: 25°C
# Description: (§5) The energetics of biotin binding was determined with a VP-ITC (MicroCal™) Isothermal Titration Calorimeter. Measurements were performed at 25°C in degassed 50 mM NaPO4 buffer (pH 7.0) containing 100 mM NaCl. In order to calculate the enthalpies of binding (ΔH) for BBP-A and AVD, the cell used for measurements was filled with 30 μM protein solution. […] The data were analysed with Origin 7.0 software using the "One Set of Sites" method. The titration curve (heat change μcal/injection) resulting from the 15 injections was analysed by fitting the data to a nonlinear least square curve.
# chicken AVD [15] = molecular target: T3, chicken AVD; experiment: Isothermal titration calorimetry, AVD; assay type: binding; settings: 25°C
# Description: as §5
# AVD = experiment: Dissociation of BSO (fluorometric) versus BTN (radiobiotin) from AVD; assay type: binding, chicken; settings: 50°C; BSO fluorometric analysis, BTN radiobiotin assay
# BBP-A = molecular target: T4, BBP-A (Gallus gallus, UniProt E1BTQ4); experiment: Biotin-binding affinity of BBP-A; parameters: species or system chicken
# T4 sequence (E1BTQ4 22-146): T1 sequence (E1BTQ4 22-146)
# Description: Background The chicken genome contains a BBP-A gene showing similar characteristics to avidin family genes. In a previous study we reported that the BBP-A gene may encode a biotin-binding protein due to the high sequence similarity with chicken avidin, especially at regions encoding residues known to be located at the ligand-binding site of avidin.
# as §2
# bBBP-A [16] = molecular target: T1, bBBP-A; experiment: [3H]-biotin competitive dissociation analysis (ligand from BBP-A); assay type: binding, chicken; settings: 40°C, [3H]-biotin dissociation analysis, excess of BTN as competitive ligand
# Description: as §2
# The dissociation rate of [^3H]biotin (Amersham) was measured at various temperatures with a competition assay as described previously. Measurements were carried out in 50 mM NaPO4 buffer containing 100 mM NaCl.
# [17] = 40°C, fluorescence spectroscopic analysis, excess of BTN as competitive ligand
molecule,measurement,setting,value
chicken biotin-binding protein A expressed in bacteria (bBBP-A) (natural protein),stoichiometry N,[1],4
same,stoichiometry N,[2],4
same,stoichiometry N,[3],4
"AVD: AVD isolated from chicken egg-white (Belovo S. A.), control protein",Tm +BTN (DSC),[4],117.0 °C
same,Tm -BTN (DSC),[5],83.5^c °C
same,"kdiss, dissociation of fluorescent BTN",[6],2.0 10^-5 s^-1
same,"Release 1 h, dissociation of fluorescent BTN",[6],10%
same,Tr +BTN,[7],90^b °C
same,Tr -BTN,[7],60^b °C
chicken biotin-binding protein A expressed in insect cells (iBBP-A) (natural protein),stoichiometry N,[8],4
same,stoichiometry N,[9],4
O=C(O)CCCC[C@H]1[C@H]2NC(=O)N[C@H]2CS1(=O)=O [D-biotin sulfone],kdiss from BBP-A,bBBP-A [10]; [17],3.3^a × 10^-4 s^-1
same,ligand-induced change of emission intensity of AVD,wtAVD,increased the emission intensity
same,"Tm (DSC), AVD",chicken AVD [11],117.0 ± 0.0 °C
same,"Tm (DSC), BBP-A",bBBP-A [12],101.4 ± 0.2 °C
same,ligand-induced change of emission intensity of BBP-A,bBBP-A [13],enhanced the emission intensity
same,"Enthalpy (ITC), BBP-A",bBBP-A [14],-21.4 ± 0.1 kcal/mol
same,"Enthalpy (ITC), AVD",chicken AVD [15],-25.1 ± 0.1 kcal/mol
"bAVD: AVD produced in E. coli, control protein","kdiss, dissociation of fluorescent BTN",[6],1.1 10^-5 s^-1
same,"Release 1 h, dissociation of fluorescent BTN",[6],5%
same,Tr +BTN,[7],90^b °C
same,Tr -BTN,[7],60^b °C
"O=C(O)CCCC[C@H]1[C@H]2NC(=O)N[C@H]2C[S+]1[O-] (stereo partly drawn) [BSO, D-biotin D-sulfoxide]",kdiss from BBP-A,bBBP-A [10]; [17],1.3^a × 10^-4 s^-1
same,"dissociation rate from AVD, times higher in comparison to BTN",AVD,more than 20 times
same,ligand-induced change of emission intensity of AVD,wtAVD,decreased the emission intensity
same,"Tm (DSC), AVD",chicken AVD [11],116.9 ± 0.2 °C
same,"Tm (DSC), BBP-A",bBBP-A [12],100.4 ± 0.2 °C
same,ligand-induced change of emission intensity of BBP-A,bBBP-A [13],enhanced the emission intensity
same,affinity of BBP-A for BSO compared with BTN,BBP-A,even higher than the affinity for BTN
same,"Enthalpy (ITC), BBP-A",bBBP-A [14],-25.9 ± 0.1 kcal/mol
same,"Enthalpy (ITC), AVD",chicken AVD [15],-29.3 ± 0.1 kcal/mol
"O=C(O)CCCC[C@@H]1SC[C@@H]2NC(=O)N[C@@H]21 [BTN, D-biotin]",kdiss from BBP-A,bBBP-A [10],5.4^b (4.4^c) × 10^-4 s^-1
same,kdiss from BBP-A,bBBP-A [16],5.4^b (4.4^c) × 10^-4 s^-1
same,ligand-induced change of emission intensity of AVD,wtAVD,decreased the emission intensity
same,"Tm (DSC), AVD",chicken AVD [11],117.0 ± 0.7 °C
same,"Tm (DSC), BBP-A",bBBP-A [12],103.4 ± 0.1 °C
same,ligand-induced change of emission intensity of BBP-A,bBBP-A [13],enhanced the emission intensity
same,"affinity of BBP-A for biotin, times lower than that of chicken avidin",BBP-A,about 50 times
same,pKd,bBBP-A [14],> 9.00
same,"Enthalpy (ITC), BBP-A",bBBP-A [14],-20.5 ± 0.1 kcal/mol
same,"Enthalpy (ITC), AVD",chicken AVD [15],-22.6 ± 0.1 kcal/mol
